Assay results published in ChEMBL document CHEMBL4387706, “Discovery of Novel Spiroindoline Derivatives as Selective Tankyrase Inhibitors” (J Med Chem, 2019).
Converted amounts (≈) assume the structure as drawn.

Columns and labels:
[1] = biological target: T1, Poly [ADP-ribose] polymerase tankyrase-1 (Homo sapiens, UniProt O95271)
T1 sequence (O95271 whole entry): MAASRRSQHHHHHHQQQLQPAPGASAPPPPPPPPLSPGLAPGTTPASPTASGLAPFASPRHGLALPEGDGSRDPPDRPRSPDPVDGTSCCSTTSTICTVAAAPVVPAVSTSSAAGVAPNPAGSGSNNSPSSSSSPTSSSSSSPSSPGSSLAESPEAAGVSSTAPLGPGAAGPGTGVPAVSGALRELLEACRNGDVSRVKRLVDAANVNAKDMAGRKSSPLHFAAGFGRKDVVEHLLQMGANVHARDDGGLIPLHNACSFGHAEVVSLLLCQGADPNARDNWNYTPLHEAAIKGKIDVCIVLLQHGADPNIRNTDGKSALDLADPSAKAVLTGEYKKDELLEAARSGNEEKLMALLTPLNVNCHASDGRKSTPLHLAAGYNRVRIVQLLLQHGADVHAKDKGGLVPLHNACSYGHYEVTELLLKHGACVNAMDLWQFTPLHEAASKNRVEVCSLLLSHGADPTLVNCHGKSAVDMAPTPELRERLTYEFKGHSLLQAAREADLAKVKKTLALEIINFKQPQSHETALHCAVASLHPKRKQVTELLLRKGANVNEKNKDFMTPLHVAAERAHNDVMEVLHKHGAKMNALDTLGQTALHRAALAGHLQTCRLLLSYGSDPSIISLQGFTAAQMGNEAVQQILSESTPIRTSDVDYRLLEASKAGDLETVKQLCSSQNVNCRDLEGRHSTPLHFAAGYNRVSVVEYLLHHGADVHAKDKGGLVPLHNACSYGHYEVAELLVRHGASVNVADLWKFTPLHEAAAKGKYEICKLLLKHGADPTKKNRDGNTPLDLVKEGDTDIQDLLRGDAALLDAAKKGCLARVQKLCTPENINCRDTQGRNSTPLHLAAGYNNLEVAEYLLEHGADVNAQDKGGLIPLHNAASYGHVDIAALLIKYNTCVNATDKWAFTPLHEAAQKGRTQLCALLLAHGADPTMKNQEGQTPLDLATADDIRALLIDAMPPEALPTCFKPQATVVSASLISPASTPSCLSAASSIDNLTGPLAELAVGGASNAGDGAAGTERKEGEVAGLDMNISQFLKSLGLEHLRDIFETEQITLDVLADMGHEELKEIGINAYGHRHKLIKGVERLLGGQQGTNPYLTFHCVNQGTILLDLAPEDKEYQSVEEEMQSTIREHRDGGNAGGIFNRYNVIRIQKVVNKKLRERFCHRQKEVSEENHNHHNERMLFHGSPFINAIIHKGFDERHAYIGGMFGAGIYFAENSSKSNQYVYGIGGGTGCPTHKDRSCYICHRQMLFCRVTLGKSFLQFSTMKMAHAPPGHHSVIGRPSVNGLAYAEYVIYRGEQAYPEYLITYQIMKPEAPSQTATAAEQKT
Description: Inhibition of recombinant human N-terminal TEV cleavage site-fused/FLAG-poly his-tagged TNKS SAM-PARP domain (1024 to 1327 residues) expressed in Escherichia coli assessed as reduction in auto-PARylation preincubated for 10 mins followed by biotinylated-NAD+ addition and measured after 45 mins by ELISA

[2] = biological target: T2, Poly [ADP-ribose] polymerase tankyrase-2 (Homo sapiens, UniProt Q9H2K2)
T2 sequence (Q9H2K2 whole entry): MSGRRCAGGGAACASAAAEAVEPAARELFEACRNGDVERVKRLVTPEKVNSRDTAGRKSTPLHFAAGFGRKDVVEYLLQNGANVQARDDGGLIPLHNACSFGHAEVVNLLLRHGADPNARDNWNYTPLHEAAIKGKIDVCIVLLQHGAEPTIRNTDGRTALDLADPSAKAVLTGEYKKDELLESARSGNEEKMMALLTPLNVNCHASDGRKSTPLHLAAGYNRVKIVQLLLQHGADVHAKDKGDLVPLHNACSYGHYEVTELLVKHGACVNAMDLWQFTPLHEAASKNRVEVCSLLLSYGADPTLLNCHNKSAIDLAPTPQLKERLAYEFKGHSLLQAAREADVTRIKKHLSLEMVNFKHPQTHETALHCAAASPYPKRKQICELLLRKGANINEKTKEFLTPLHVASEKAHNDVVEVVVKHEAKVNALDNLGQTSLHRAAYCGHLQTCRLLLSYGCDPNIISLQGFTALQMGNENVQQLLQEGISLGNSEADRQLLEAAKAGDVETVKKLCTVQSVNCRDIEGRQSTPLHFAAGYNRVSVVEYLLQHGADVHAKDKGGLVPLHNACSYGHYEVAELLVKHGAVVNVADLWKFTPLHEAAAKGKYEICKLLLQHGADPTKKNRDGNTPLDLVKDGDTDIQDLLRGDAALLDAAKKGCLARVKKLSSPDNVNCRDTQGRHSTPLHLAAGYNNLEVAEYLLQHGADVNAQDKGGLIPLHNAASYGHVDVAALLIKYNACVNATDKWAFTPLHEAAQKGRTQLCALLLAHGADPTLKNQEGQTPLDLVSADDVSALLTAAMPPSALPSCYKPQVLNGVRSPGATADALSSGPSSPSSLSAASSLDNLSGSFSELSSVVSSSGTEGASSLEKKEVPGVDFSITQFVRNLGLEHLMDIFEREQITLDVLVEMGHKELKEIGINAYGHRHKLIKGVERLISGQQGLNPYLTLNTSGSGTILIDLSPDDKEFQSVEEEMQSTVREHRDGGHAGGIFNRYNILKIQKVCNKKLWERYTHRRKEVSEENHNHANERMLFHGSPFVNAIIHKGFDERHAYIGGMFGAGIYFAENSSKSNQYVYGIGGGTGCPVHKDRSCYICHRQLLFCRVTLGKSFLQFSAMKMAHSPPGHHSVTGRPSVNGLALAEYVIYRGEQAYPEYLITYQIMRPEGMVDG
Description: Inhibition of recombinant human N-terminal TEV cleavage site-fused/FLAG-poly his-tagged TNKS2 SAM-PARP domain (613 to 1166 residues) expressed in Escherichia coli assessed as reduction in auto-PARylation preincubated for 10 mins followed by biotinylated-NAD+ addition and measured after 45 mins by ELISA

[3] = biological target: T3, Tankyrase 1/2 (Homo sapiens, UniProt Q9H2K2+O95271)
T3 sequence (Q9H2K2 whole entry): T2 sequence (Q9H2K2 whole entry)
T3 sequence (O95271 whole entry): T1 sequence (O95271 whole entry)
Description: Inhibition of TNKS/TNKS2 (unknown origin) expressed in human DLD1 cells assessed as reduction in Wnt-signaling measured after 24 hrs by TCF-luciferase reporter gene assay

[4] = physchem; conditions: phosphate buffer, pH 7.4
[5] = test system: COLO 320DM; assay: cells; conditions: Homo sapiens, 96 h
Description: Antiproliferative activity against human COLO320DM cells assessed as inhibition of cell growth measured after 4 days by CellTiter-Glo assay

| SMILES | IC50 [1] [µM] | IC50 [2] [µM] | IC50 [3] [µM] | solubility at 1 h, 200 µM [4] [µg/mL] | GI50 [5] [µM] |
| --- | --- | --- | --- | --- | --- |
| COc1ccccc1N1CCN(c2nc3c(c(=O)[nH]2)CC(C)CC3)CC1 (stereo not given) | 1.35 | 3.48 | 7.282 | 1.8 (≈ 5.08 µM) | – |
| O=c1[nH]c(N2CCC3(CC2)CNc2cccc(Cl)c23)nc2c1CCCC2 | 0.0064 | 0.0053 | 0.247 | 2.6 (≈ 7.01 µM) | 4.9 |
| COc1ccccc1N1CCN(c2nc3c(c(=O)[nH]2)CN(C)CC3)CC1 | > 20 | > 20 | > 10 | 69.7 (≈ 196 µM) | – |
| O=c1[nH]c(N2CCC3(CC2)CNc2cccc(Br)c23)nc2c1CCCC2 | 0.016 | 0.0156 | 0.454 | 8.9 (≈ 21.4 µM) | 10.4 |
| Oc1nc(N2CCN(c3ccccc3)CC2)nc2c1CCCC2 | 0.135 | 0.0589 | 1.536 | 4.9 (≈ 15.8 µM) | – |
| O=C1Nc2cccc(Br)c2C12CCN(c1nc3c(c(=O)[nH]1)CCCC3)CC2 | 0.0058 | 0.0134 | 0.0912 | 1.9 (≈ 4.43 µM) | 8.8 |
| O=C1Nc2cccc(Cl)c2C12CCN(c1nc3c(c(=O)[nH]1)CCCC3)CC2 | 0.0102 | 0.0049 | 0.0215 | 2.8 (≈ 7.28 µM) | 5 |
| O=c1[nH]c(N2CCC3(CC2)CNc2cccc(F)c23)nc2c1CCCC2 | 0.0044 | 0.0028 | 0.0724 | 4.2 (≈ 11.9 µM) | 3.3 |
| O=c1[nH]c(N2CCC3(CC2)CNc2cc(Cl)cc(Cl)c23)nc2c1CCCC2 | 0.0075 | 0.0104 | 0.609 | 11 (≈ 27.1 µM) | 7.5 |
| O=c1[nH]c(N2CCC3(CC2)CNc2cc(F)cc(F)c23)nc2c1CCCC2 | 0.0054 | 0.0033 | 0.11 | 6.3 (≈ 16.9 µM) | 5.2 |
| O=C1Nc2cc(Cl)ccc2C12CCN(c1nc3c(c(=O)[nH]1)CCCC3)CC2 | 0.0111 | 0.0144 | 0.623 | 1.8 (≈ 4.68 µM) | 19.9 |
| COc1ccccc1N1CCN(c2nc3c(c(=O)[nH]2)CC(C)(C)CC3)CC1 | > 20 | > 20 | > 10 | 2.4 (≈ 6.51 µM) | – |
| COc1ccccc1N1CCN(C2=NC3CCCCCC3C(=O)N2)CC1 (stereo not given) | – | – | > 10 | – | – |
| N#Cc1cccc2c1C1(CCN(c3nc4c(c(=O)[nH]3)CCCC4)CC1)C(=O)N2 | 0.0168 | 0.0268 | 0.496 | 5.3 (≈ 14.1 µM) | 20.4 |
| O=C1Nc2cc(F)ccc2C12CCN(c1nc3c(c(=O)[nH]1)CCCC3)CC2 | 0.011 | 0.012 | 0.369 | 62.9 (≈ 171 µM) | 15 |
| O=c1[nH]c(N2CCC3(CC2)CNc2cc(Cl)ccc23)nc2c1CCCC2 | 0.0084 | 0.0058 | 0.818 | 9.2 (≈ 24.8 µM) | 6.9 |
| O=C1Nc2cc(F)cc(F)c2C12CCN(c1nc3c(c(=O)[nH]1)CCCC3)CC2 | 0.0064 | 0.0075 | 0.0439 | 0.8 (≈ 2.07 µM) | 4.2 |
| N#Cc1cccc2c1C1(CCN(c3nc4c(c(=O)[nH]3)CCCC4)CC1)CN2 | 0.0099 | 0.0185 | 0.799 | 69.2 (≈ 191 µM) | 23.6 |
| COc1ccccc1N1CCN(c2nc3c(c(=O)[nH]2)CNCC3)CC1 | 7.78 | 6.98 | > 10 | 66.4 (≈ 194 µM) | – |
| COc1ccccc1N1CCC(c2nc3c(c(=O)[nH]2)CCCC3)CC1 | 14.3 | 6.42 | 5.401 | – | 19.6 |
| O=C1Nc2cccc(F)c2C12CCN(c1nc3c(c(=O)[nH]1)CCCC3)CC2 | 0.0058 | 0.0047 | 0.0311 | 3.1 (≈ 8.41 µM) | 2.3 |
| O=C1Nc2cc(Cl)cc(Cl)c2C12CCN(c1nc3c(c(=O)[nH]1)CCCC3)CC2 | 0.0053 | 0.0071 | 0.533 | 15.7 (≈ 37.4 µM) | 21.4 |
| O=c1[nH]c(N2CCC3(CC2)CNc2cc(F)ccc23)nc2c1CCCC2 | 0.0167 | 0.0076 | 0.657 | 3.2 (≈ 9.03 µM) | 10.3 |
